In the supplement of paper PMC10307832:

Columns and labels:
Test in all cases: relative viability (nuclei count vs DMSO), 5 days (fraction); higher = more cells survive
[1] = compound: C=CCNC1=C2C[C@@H](C)C[C@H](OC)[C@H](O)[C@@H](C)/C=C(\C)[C@H](OC(N)=O)[C@@H](OC)/C=C\C=C(/C)C(=O)NC(=CC1=O)C2=O [17-AAG] + CC(C)C[C@H](NC(=O)[C@H](Cc1ccccc1)NC(=O)c1cnccn1)B(O)O [Bortezomib] (partner 0.002 µM)
How it was run: (§1)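 Lung cancer cell lines were pin-tool dosed in 1536-well plates on the day after seeding, with either a lone drug or a fixed anchor-drug dose plus five library-drug doses (not always all listed) in √10 steps. Nuclei were counted on 4× images after 5 days. Relative viability is the ratio of treated-well to vehicle-well nuclei counts, with each value a median of duplicate plates.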

[2] = compound: C=CCNC1=C2C[C@@H](C)C[C@H](OC)[C@H](O)[C@@H](C)/C=C(\C)[C@H](OC(N)=O)[C@@H](OC)/C=C\C=C(/C)C(=O)NC(=CC1=O)C2=O [17-AAG] + NC(=O)Nc1cc(-c2cccc(F)c2)sc1C(=O)N[C@H]1CCCNC1 [AZD7762] (partner 0.2 µM)
How it was run: as §1

[3] = compound: C=CCNC1=C2C[C@@H](C)C[C@H](OC)[C@H](O)[C@@H](C)/C=C(\C)[C@H](OC(N)=O)[C@@H](OC)/C=C\C=C(/C)C(=O)NC(=CC1=O)C2=O [17-AAG] + Cc1cc(Nc2cc(N3CCN(C)CC3)nc(Sc3ccc(NC(=O)C4CC4)cc3)n2)n[nH]1 [Tozasertib] (partner 0.1 µM)
How it was run: as §1

[4] = compound: C=CCNC1=C2C[C@@H](C)C[C@H](OC)[C@H](O)[C@@H](C)/C=C(\C)[C@H](OC(N)=O)[C@@H](OC)/C=C\C=C(/C)C(=O)NC(=CC1=O)C2=O [17-AAG] + Nc1ncn([C@H]2C[C@H](O)[C@@H](CO)O2)c(=O)n1 [Decitabine] (partner 2 µM)
How it was run: as §1

| Cell Line | relative viability ([1]; first compound 0.00128 µM) | relative viability ([1]; first compound 0.004048 µM) | relative viability ([1]; first compound 0.0128 µM) | relative viability ([1]; first compound 0.04048 µM) | relative viability ([1]; first compound 0.128 µM) | relative viability ([2]; first compound 0.00128 µM) | relative viability ([2]; first compound 0.004048 µM) | relative viability ([2]; first compound 0.0128 µM) | relative viability ([2]; first compound 0.04048 µM) | relative viability ([2]; first compound 0.128 µM) | relative viability ([3]; first compound 0.00128 µM) | relative viability ([3]; first compound 0.004048 µM) | relative viability ([3]; first compound 0.0128 µM) | relative viability ([3]; first compound 0.04048 µM) | relative viability ([3]; first compound 0.128 µM) | relative viability ([4]; first compound 0.00128 µM) | relative viability ([4]; first compound 0.004048 µM) | relative viability ([4]; first compound 0.0128 µM) | relative viability ([4]; first compound 0.04048 µM) | relative viability ([4]; first compound 0.128 µM) |
| --- | --- | --- | --- | --- | --- | --- | --- | --- | --- | --- | --- | --- | --- | --- | --- | --- | --- | --- | --- | --- |
| NCI-H596 | 0.991 | 0.974 | 1.09 | 0.994 | 0.844 | 1.12 | 1.05 | 1.18 | 1.04 | 0.397 | 0.959 | 0.832 | 1.01 | 0.443 | 0.258 | 1.05 | 0.988 | 0.899 | 0.891 | 0.502 |
| EPLC-272H | 0.89 | 0.821 | 0.97 | 0.855 | 0.171 | 0.208 | 0.3 | 0.207 | 0.13 | 0.101 | 0.331 | 0.329 | 0.482 | 0.379 | 0.143 | 0.367 | 0.352 | 0.307 | 0.158 | 0.0907 |
| NCI-H2347 |  | 0.995 | 0.871 | 0.447 | 0.371 | 0.891 | 0.578 | 0.472 | 0.26 | 0.22 | 0.564 | 0.518 | 0.507 | 0.278 | 0.303 | 0.659 | 0.631 | 0.558 | 0.453 | 0.386 |
| NCI-H1993 | 1.04 | 1.25 | 0.609 | 0.454 | 0.369 | 0.936 | 0.644 | 0.325 | 0.339 | 0.248 | 0.56 | 0.591 | 0.585 | 0.42 | 0.453 | 0.609 | 0.606 | 0.544 | 0.408 | 0.348 |
| NCI-H647 | 0.912 | 0.761 | 0.0902 | 0.1 | 0.0699 | 0.487 | 0.175 | 0.0631 | 0.074 | 0.0589 | 0.419 | 0.222 | 0.0879 | 0.0995 | 0.0751 | 0.365 | 0.272 | 0.0949 | 0.129 | 0.102 |
| HCC-827 | 0.962 | 0.995 | 1.04 |  | 0.849 | 0.216 | 0.238 | 0.163 |  | 0.164 | 0.402 | 0.427 | 0.467 |  | 0.432 | 0.279 | 0.363 | 0.308 |  | 0.306 |
| ChaGo-K-1 | 1.01 | 0.971 | 0.981 | 0.304 | 0.297 | 0.843 | 0.871 | 0.861 | 0.449 | 0.217 | 0.215 | 0.249 | 0.279 | 0.217 | 0.205 | 0.444 | 0.55 | 0.491 | 0.514 | 0.428 |
| EMC-BAC-2 | 1.15 | 1.11 | 1.13 | 1.01 | 0.209 | 1.17 | 1.15 | 0.735 | 0.598 | 0.287 | 0.286 | 0.297 | 0.347 | 0.26 | 0.226 | 0.98 | 0.939 | 0.692 | 0.31 | 0.219 |
| NCI-H23 | 0.92 | 0.635 | 0.232 | 0.168 | 0.127 | 0.201 | 0.4 | 0.18 | 0.122 | 0.0996 | 0.425 | 0.563 | 0.365 | 0.213 | 0.187 | 0.294 | 0.226 | 0.251 | 0.185 | 0.16 |
| LC-2-ad | 0.97 | 1.05 | 0.665 | 0.119 | 0.105 | 0.841 | 0.835 | 0.714 | 0.297 | 0.161 | 0.437 | 0.437 | 0.429 | 0.316 | 0.226 | 0.776 | 0.876 | 0.713 | 0.645 | 0.227 |
| HCC-15 | 1.01 | 0.816 | 0.502 | 0.542 | 0.127 | 1.29 | 1.27 | 0.986 | 0.461 | 0.158 | 0.429 | 0.453 | 0.365 | 0.124 | 0.0778 | 0.599 | 0.557 | 0.174 | 0.136 | 0.137 |
| NCI-H3122 | 0.926 | 0.954 | 0.506 | 0.488 | 0.177 | 0.93 | 0.873 | 0.214 | 0.161 | 0.108 | 0.473 | 0.187 | 0.0915 | 0.104 | 0.0922 | 0.487 | 0.413 | 0.426 | 0.235 | 0.118 |
| LXF-289 | 0.99 | 0.994 | 0.815 | 0.478 | 0.108 | 1.09 | 1.1 | 0.617 | 0.151 | 0.0926 | 0.204 | 0.22 | 0.203 | 0.127 | 0.0677 | 0.4 | 0.473 | 0.355 | 0.297 | 0.19 |
| NCI-H1755 | 0.966 | 0.9 | 0.817 | 0.391 | 0.189 | 0.47 | 0.468 | 0.362 | 0.234 | 0.195 | 0.609 | 0.477 | 0.481 | 0.363 | 0.215 | 0.695 | 0.772 | 0.671 | 0.643 | 0.391 |
| NCI-H1437 | 0.606 | 0.389 | 0.176 | 0.123 | 0.0811 | 1.1 | 1.07 | 0.651 | 0.271 | 0.201 | 0.4 | 0.477 | 0.296 | 0.311 | 0.164 | 0.531 | 0.636 | 0.504 | 0.311 | 0.241 |
| NCI-H2085 | 1.08 | 1.02 | 1.11 | 1.04 | 0.714 | 0.983 | 1.02 | 1 | 1 | 0.551 | 0.798 | 0.673 | 0.71 | 0.799 | 0.679 | 0.498 | 0.512 | 0.588 | 0.57 | 0.495 |
| H3255 | 0.864 | 0.722 | 0.46 | 0.237 | 0.205 | 0.876 | 1 | 0.674 | 0.252 | 0.245 | 0.957 | 0.496 | 0.612 | 0.234 | 0.228 | 0.788 | 0.566 | 0.488 | 0.231 | 0.198 |
| LCLC-103H | 1.02 | 1.17 | 1.02 | 1.13 | 1.09 | 0.756 | 0.755 | 0.742 | 0.834 | 0.835 | 0.555 | 0.55 | 0.458 | 0.532 | 0.643 | 0.757 | 0.715 | 0.731 | 0.812 | 0.797 |
| LOU-NH91 | 0.483 | 0.512 | 0.394 | 0.401 | 0.381 | 0.765 | 0.71 | 0.444 | 0.382 | 0.347 | 0.663 | 0.475 | 0.39 | 0.327 | 0.307 | 0.806 | 0.724 | 0.623 | 0.47 | 0.393 |
| NCI-H322M | 1.28 | 1.38 | 1.35 | 0.929 | 0.493 | 0.633 | 0.415 | 0.405 | 0.382 | 0.413 | 0.478 | 0.443 | 0.337 | 0.316 | 0.325 | 0.811 | 0.706 | 0.641 | 0.475 | 0.442 |
| RERF-LC-KJ | 1.17 | 1.17 | 0.888 | 0.288 | 0.303 | 1 | 1.16 | 0.859 | 0.229 | 0.118 | 0.551 | 0.754 | 0.293 | 0.275 | 0.257 | 0.66 | 0.447 | 0.225 | 0.27 | 0.202 |
| NCI-H1651 | 0.859 | 0.928 | 0.872 | 0.89 | 0.425 | 0.463 | 0.512 | 0.482 | 0.364 | 0.136 | 0.778 | 0.667 | 0.612 | 0.302 | 0.14 | 0.389 | 0.68 | 0.481 | 0.362 | 0.179 |
| NCI-H2087 | 0.85 | 0.674 | 0.377 | 0.215 | 0.137 | 1.28 | 1.3 | 0.471 | 0.154 | 0.116 | 0.306 | 0.228 | 0.208 | 0.148 | 0.1 | 0.248 | 0.193 | 0.104 | 0.113 | 0.114 |
